Tests used:
[1] = biological target: T1, M-phase inducer phosphatase 2 (Homo sapiens, UniProt P30305)
T1 sequence (P30305 whole entry): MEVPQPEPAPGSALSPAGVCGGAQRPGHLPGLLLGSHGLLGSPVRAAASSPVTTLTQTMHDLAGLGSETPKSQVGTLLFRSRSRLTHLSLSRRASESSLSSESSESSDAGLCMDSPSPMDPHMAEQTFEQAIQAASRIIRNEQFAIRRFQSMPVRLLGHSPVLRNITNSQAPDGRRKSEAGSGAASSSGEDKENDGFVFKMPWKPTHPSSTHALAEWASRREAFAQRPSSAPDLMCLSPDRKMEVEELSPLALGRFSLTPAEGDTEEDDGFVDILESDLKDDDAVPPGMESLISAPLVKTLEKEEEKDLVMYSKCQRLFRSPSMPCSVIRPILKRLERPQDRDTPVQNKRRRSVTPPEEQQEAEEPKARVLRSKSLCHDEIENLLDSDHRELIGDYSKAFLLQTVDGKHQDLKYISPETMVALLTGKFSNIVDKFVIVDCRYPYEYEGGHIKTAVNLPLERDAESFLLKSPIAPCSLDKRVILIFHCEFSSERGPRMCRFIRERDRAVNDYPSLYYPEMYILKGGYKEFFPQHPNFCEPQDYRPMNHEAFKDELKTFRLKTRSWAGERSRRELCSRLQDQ

[2] = biological target: T2, Tyrosine-protein phosphatase non-receptor type 2 (Homo sapiens, UniProt P17706)
T2 sequence (P17706 whole entry): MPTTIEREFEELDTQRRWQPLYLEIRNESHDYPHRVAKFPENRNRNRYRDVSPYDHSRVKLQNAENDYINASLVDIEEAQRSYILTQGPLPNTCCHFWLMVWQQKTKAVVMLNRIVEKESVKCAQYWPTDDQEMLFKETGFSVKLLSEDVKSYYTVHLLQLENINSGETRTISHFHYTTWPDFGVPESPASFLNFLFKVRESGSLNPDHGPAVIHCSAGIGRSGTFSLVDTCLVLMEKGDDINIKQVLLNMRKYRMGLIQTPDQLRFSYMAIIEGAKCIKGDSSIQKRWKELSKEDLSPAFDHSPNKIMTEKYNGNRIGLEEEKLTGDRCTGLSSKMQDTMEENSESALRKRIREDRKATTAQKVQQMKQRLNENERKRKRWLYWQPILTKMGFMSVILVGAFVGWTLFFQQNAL

[3] = biological target: T3, Tyrosine-protein phosphatase non-receptor type 1 (Homo sapiens, UniProt P18031)
T3 sequence (P18031 whole entry): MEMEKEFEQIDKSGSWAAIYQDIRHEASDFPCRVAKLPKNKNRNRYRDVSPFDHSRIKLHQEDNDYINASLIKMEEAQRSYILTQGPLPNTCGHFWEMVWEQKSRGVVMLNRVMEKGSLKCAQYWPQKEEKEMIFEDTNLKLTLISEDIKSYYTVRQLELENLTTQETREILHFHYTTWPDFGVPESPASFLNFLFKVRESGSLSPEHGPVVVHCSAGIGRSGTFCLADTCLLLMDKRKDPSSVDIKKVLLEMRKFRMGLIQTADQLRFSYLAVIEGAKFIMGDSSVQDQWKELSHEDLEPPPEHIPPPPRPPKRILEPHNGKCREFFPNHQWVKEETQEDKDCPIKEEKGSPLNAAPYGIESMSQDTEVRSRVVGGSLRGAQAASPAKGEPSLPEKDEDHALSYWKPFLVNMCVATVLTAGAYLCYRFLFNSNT

[4] = biological target: Tyrosine-protein phosphatase non-receptor type 6 (Homo sapiens, UniProt P29350)
Tyrosine-protein phosphatase non-receptor type 6, sequence (P29350 whole entry): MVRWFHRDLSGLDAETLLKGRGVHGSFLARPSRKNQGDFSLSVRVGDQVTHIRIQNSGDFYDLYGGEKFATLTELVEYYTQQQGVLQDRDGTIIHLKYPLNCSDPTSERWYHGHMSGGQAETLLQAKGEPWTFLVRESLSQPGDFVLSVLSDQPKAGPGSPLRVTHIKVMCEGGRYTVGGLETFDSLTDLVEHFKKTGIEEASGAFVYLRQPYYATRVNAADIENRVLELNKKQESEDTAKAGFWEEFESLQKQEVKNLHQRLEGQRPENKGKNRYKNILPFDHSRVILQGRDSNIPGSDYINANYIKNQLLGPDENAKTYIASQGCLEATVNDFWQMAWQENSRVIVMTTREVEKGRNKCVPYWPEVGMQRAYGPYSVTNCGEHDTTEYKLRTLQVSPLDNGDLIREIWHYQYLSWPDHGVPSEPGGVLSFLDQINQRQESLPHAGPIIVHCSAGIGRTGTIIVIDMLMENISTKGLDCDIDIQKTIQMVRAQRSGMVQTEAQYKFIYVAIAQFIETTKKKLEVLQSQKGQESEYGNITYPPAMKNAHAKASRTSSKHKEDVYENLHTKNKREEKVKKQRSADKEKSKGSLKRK

[5] = biological target: T4, Tyrosine-protein phosphatase non-receptor type 11 (Homo sapiens, UniProt Q06124)
T4 sequence (Q06124 whole entry): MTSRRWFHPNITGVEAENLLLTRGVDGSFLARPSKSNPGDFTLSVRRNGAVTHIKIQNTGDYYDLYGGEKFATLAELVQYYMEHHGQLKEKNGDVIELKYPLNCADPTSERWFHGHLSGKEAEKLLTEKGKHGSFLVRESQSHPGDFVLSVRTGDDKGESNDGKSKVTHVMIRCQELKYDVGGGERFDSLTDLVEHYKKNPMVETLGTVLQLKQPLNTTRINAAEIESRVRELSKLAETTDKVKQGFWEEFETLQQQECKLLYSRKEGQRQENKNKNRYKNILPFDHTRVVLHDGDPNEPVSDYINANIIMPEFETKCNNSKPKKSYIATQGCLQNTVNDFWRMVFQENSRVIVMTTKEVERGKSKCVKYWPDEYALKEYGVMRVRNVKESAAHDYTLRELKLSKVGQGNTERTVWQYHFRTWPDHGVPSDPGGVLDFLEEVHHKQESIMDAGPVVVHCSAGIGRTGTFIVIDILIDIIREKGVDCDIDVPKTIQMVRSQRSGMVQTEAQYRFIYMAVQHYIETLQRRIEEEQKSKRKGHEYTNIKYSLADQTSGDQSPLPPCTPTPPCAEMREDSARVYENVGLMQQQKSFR

SMILES | IC50 [1] [µM] | IC50 [2] [µM] | IC50 [3] [µM] | IC50 [4] [µM] | IC50 [5] [µM]
CCCCCCCCCCCC[C@@H]1C=C2C(=O)O[C@@]3(C)O[C@@]4(C)OC(=O)[C@]1(CO)[C@H]4[C@@H]23 [(1R,6R,7S,10S,11R,12S)-6-dodecyl-7-(hydroxymethyl)-1,10-dimethyl-2,9,13-trioxatetracyclo[8.2.1.0⁴,.0⁷,]tridec-4-ene-3,8-dione (15)] | 17 | 19.8 | 20.4 | – | –
CCCCCCCCCCCC[C@@H]1C=C2C(=O)O[C@@]3(C)O[C@@]4(C)OC(=O)[C@]1(C=O)[C@H]4[C@@H]23 [(1S,4S,5R,10R,11S,12R)-5-dodecyl-1,10-dimethyl-3,8-dioxo-2,9,13-trioxatetracyclo[8.2.1.0⁴,.0⁷,]tridec-6-ene-4-carbaldehyde (14)] | 8.33 | 9.38 | 6 | – | –
CCCCCCCCCCCC/C=C/[C@]12C(=O)O[C@]3(C)O[C@]4(C)OC(=O)C(=C[C@H]1CCCCCCCCCCCC)[C@@H]4[C@@H]32 [Paracaseolide A (13)] | 2.34 | 6.01 | 1.5 | – | –

Results, then the compound that gave them:

IC50 [1] [µM] | IC50 [2] [µM] | IC50 [3] [µM] | IC50 [4] [µM] | IC50 [5] [µM] | SMILES
3.93 | 31.8 | 4.27 | – | – | CCCCCCCCCCCCC/C=C/[C@@]12C(=O)O[C@@H](C)[C@@H]1[C@H]1C(=CC2CCCCCCCCCCCC)C(=O)O[C@H]1C (stereo partly drawn) [(1R,2S,3S,8R,9S,12S)-8-dodecyl-3,12-dimethyl-9-[(1E)-pentadec-1-en-1-yl]-4,11-dioxatricyclo[7.3.0.0,⁶]dodec-6-ene-5,10-dione (7)]
2.34 | 13.2 | 3.25 | – | – | CCCCCCCCCCCC/C=C/[C@@]12C(=O)O[C@@H](C)[C@@H]1[C@H]1C(=C[C@H]2CCCCCCCCCCCC)C(=O)O[C@H]1C [(1R,2S,3S,8R,9S,12S)-8-dodecyl-3,12-dimethyl-9-[(1E)-tetradec-1-en-1-yl]-4,11-dioxatricyclo[7.3.0.0,⁶]dodec-6-ene-5,10-dione (6)]
0.22 | 2.55 | 0.27 | 3.86 | 3.13 | CCCCCCCCCCCCC/C=C/[C@@]12C(=O)O[C@@H](C)[C@@H]1[C@H](C(C)=O)C(C(=O)O)=C[C@H]2CCCCCCCCCCCC [(3S,3aR,4S,7R,7aS)-4-acetyl-7-dodecyl-3-methyl-1-oxo-7a-[(1E)-pentadec-1-en-1-yl]-1,3,3a,4,7,7a-hexahydro-2-benzofuran-5-carboxylic acid (9)]
0.2 | 4.73 | 0.27 | 4.41 | 1.71 | CCCCCCCCCCCCC/C=C/[C@@]12C(=O)O[C@@H](C)[C@@H]1[C@H](C(C)=O)C(C(=O)O)=CC2CCCCCCCCCCCC (stereo partly drawn) [(3S,3aR,4S,7aS)-4-acetyl-7-dodecyl-3-methyl-1-oxo-7a-[(1E)-pentadec-1-en-1-yl]-1,3,3a,4,7,7a-hexahydro-2-benzofuran-5-carboxylic acid (10)]

Source: BindingDB's records for doi:10.1039/c4ob00214h (Lanzhou University, 2014)
